Results taken from paper PMC8245078, “Development of novel benzofuran-isatin conjugates as potential antiproliferative agents with apoptosis inducing mechanism in Colon cancer” (Journal of Enzyme Inhibition and Medicinal Chemistry, 2021).

Experiments:
Test in all cases: NCI single dose screening (10 µM)
Format in all cases: cell-based
[1] = test system: LOX IMVI; conditions: Homo sapiens, Melanoma, single dose 10^−5 M, read-out: GI% (cell growth inhibition percentage)
[2] = test system: BT-549; conditions: Homo sapiens; BT-549, Breast cancer, single dose 10^−5 M; read-out: GI% (cell growth inhibition percentage)
[3] = test system: MDA-MB-231/ATCC; conditions: Homo sapiens; MDA-MB-231/ATCC, Breast cancer, single dose 10^−5 M; read-out: GI% (cell growth inhibition percentage)
[4] = test system: NCI-H460; conditions: Homo sapiens; NCI-H460, Non-small cell lung cancer, single dose 10^−5 M; read-out: GI% (cell growth inhibition percentage)
[5] = test system: MDA-MB-468; conditions: Homo sapiens; MDA-MB-468, Breast cancer, single dose 10^−5 M; read-out: GI% (cell growth inhibition percentage)
[6] = test system: UO-31; conditions: Homo sapiens; UO-31, Renal cancer, single dose 10^−5 M; read-out: GI% (cell growth inhibition percentage)
[7] = test system: ACHN; conditions: Homo sapiens, Renal cancer, single dose 10^−5 M, read-out: GI% (cell growth inhibition percentage)
[8] = test system: HS 578 T; conditions: Homo sapiens; HS 578 T, Breast cancer, single dose 10^−5 M; read-out: GI% (cell growth inhibition percentage)
[9] = test system: SK-MEL-2; conditions: Homo sapiens; SK-MEL-2, Melanoma, single dose 10^−5 M; read-out: GI% (cell growth inhibition percentage)
[10] = test system: NCI/ADR-RES; conditions: Homo sapiens, Ovarian cancer, single dose 10^−5 M, read-out: GI% (cell growth inhibition percentage)
[11] = test system: COLO 205; conditions: Homo sapiens; COLO 205, Colon cancer, single dose 10^−5 M; read-out: GI% (cell growth inhibition percentage)
[12] = test system: OVCAR-5; conditions: Homo sapiens; OVCAR-5, Ovarian cancer, single dose 10^−5 M; read-out: GI% (cell growth inhibition percentage)
[13] = test system: SF-539; conditions: Homo sapiens; SF-539, CNS cancer, single dose 10^−5 M; read-out: GI% (cell growth inhibition percentage)
[14] = test system: HCT-116; conditions: Homo sapiens; HCT-116, Colon cancer, single dose 10^−5 M; read-out: GI% (cell growth inhibition percentage)
[15] = test system: MALME-3M; conditions: Homo sapiens; MALME-3M, Melanoma, single dose 10^−5 M; read-out: GI% (cell growth inhibition percentage)
[16] = test system: NCI-H23; conditions: Homo sapiens; NCI-H23, Non-small cell lung cancer, single dose 10^−5 M; read-out: GI% (cell growth inhibition percentage)
[17] = test system: MOLT-4; conditions: Homo sapiens; MOLT-4, Leukaemia, single dose 10^−5 M; read-out: GI% (cell growth inhibition percentage)
[18] = test system: SR; conditions: Homo sapiens, Leukaemia, single dose 10^−5 M, read-out: GI% (cell growth inhibition percentage)
[19] = test system: CAKI-1; conditions: Homo sapiens; CAKI-1, Renal cancer, single dose 10^−5 M; read-out: GI% (cell growth inhibition percentage)
[20] = test system: NCI-H522; conditions: Homo sapiens; NCI-H522, Non-small cell lung cancer, single dose 10^−5 M; read-out: GI% (cell growth inhibition percentage)
[21] = test system: OVCAR-4; conditions: Homo sapiens; OVCAR-4, Ovarian cancer, single dose 10^−5 M; read-out: GI% (cell growth inhibition percentage)
[22] = test system: SK-MEL-28; conditions: Homo sapiens; SK-MEL-28, Melanoma, single dose 10^−5 M; read-out: GI% (cell growth inhibition percentage)
[23] = test system: IGROV1; conditions: Homo sapiens, IGROV-1; IGROV1, Ovarian cancer, single dose 10^−5 M; read-out: GI% (cell growth inhibition percentage)
[24] = test system: CCRF-CEM; conditions: Homo sapiens, Leukaemia, single dose 10^−5 M, read-out: GI% (cell growth inhibition percentage)
[25] = test system: T-47D; conditions: Homo sapiens, T47D; T-47D, Breast cancer, single dose 10^−5 M; read-out: GI% (cell growth inhibition percentage)
[26] = test system: OVCAR-3; conditions: Homo sapiens; OVCAR-3, Ovarian cancer, single dose 10^−5 M; read-out: GI% (cell growth inhibition percentage)
[27] = test system: U251; conditions: Homo sapiens, U-251; U251, CNS cancer, single dose 10^−5 M; read-out: GI% (cell growth inhibition percentage)
[28] = test system: SF-295; conditions: Homo sapiens; SF-295, CNS cancer, single dose 10^−5 M; read-out: GI% (cell growth inhibition percentage)
[29] = test system: MDA-MB-435; conditions: Homo sapiens; MDA-MB-435, Melanoma, single dose 10^−5 M; read-out: GI% (cell growth inhibition percentage)
[30] = test system: 786-0; conditions: Homo sapiens; 786-0, Renal cancer, single dose 10^−5 M; read-out: GI% (cell growth inhibition percentage)
[31] = test system: KM12; conditions: Homo sapiens; KM12, Colon cancer, single dose 10^−5 M; read-out: GI% (cell growth inhibition percentage)
[32] = test system: SF-268; conditions: Homo sapiens; SF-268, CNS cancer, single dose 10^−5 M; read-out: GI% (cell growth inhibition percentage)

Cc1c(C(=O)N/N=C2\C(=O)Nc3ccc(F)cc32)oc2ccccc12 [Compound 5b]
inhibition at 10 µM [1]: < 10% | inhibition at 10 µM [2]: < 10% | inhibition at 10 µM [3]: 14.6% | inhibition at 10 µM [4]: < 10% | inhibition at 10 µM [5]: < 10% | inhibition at 10 µM [6]: 26.7% | inhibition at 10 µM [7]: < 10% | inhibition at 10 µM [8]: < 10% | inhibition at 10 µM [9]: < 10% | inhibition at 10 µM [10]: < 10% | inhibition at 10 µM [11]: < 10% | inhibition at 10 µM [12]: < 10% | inhibition at 10 µM [13]: < 10% | inhibition at 10 µM [14]: < 10% | inhibition at 10 µM [15]: 12.4% | inhibition at 10 µM [16]: < 10% | inhibition at 10 µM [17]: < 10% | inhibition at 10 µM [18]: < 10% | inhibition at 10 µM [19]: 19.5% | inhibition at 10 µM [20]: 10.4% | inhibition at 10 µM [21]: < 10% | inhibition at 10 µM [22]: < 10% | inhibition at 10 µM [23]: 33.7% | inhibition at 10 µM [24]: < 10% | inhibition at 10 µM [25]: < 10% | inhibition at 10 µM [26]: < 10% | inhibition at 10 µM [27]: < 10% | inhibition at 10 µM [28]: < 10% | inhibition at 10 µM [29]: < 10% | inhibition at 10 µM [30]: < 10% | inhibition at 10 µM [31]: < 10% | inhibition at 10 µM [32]: < 10%

Cc1c(C(=O)N/N=C2\C(=O)Nc3ccc(Br)cc32)oc2ccccc12 [Compound 5c]
inhibition at 10 µM [1]: 33.8% | inhibition at 10 µM [2]: 22.1% | inhibition at 10 µM [3]: 29.9% | inhibition at 10 µM [4]: 42.6% | inhibition at 10 µM [5]: < 10% | inhibition at 10 µM [6]: 43.4% | inhibition at 10 µM [7]: 35.5% | inhibition at 10 µM [8]: 46.3% | inhibition at 10 µM [9]: < 10% | inhibition at 10 µM [10]: 29.3% | inhibition at 10 µM [11]: < 10% | inhibition at 10 µM [12]: < 10% | inhibition at 10 µM [13]: 57.9% | inhibition at 10 µM [14]: 32% | inhibition at 10 µM [15]: 64.9% | inhibition at 10 µM [16]: 33% | inhibition at 10 µM [17]: < 10% | inhibition at 10 µM [18]: 17.6% | inhibition at 10 µM [19]: 26.6% | inhibition at 10 µM [20]: 10.3% | inhibition at 10 µM [21]: 31% | inhibition at 10 µM [22]: < 10% | inhibition at 10 µM [23]: 44.6% | inhibition at 10 µM [24]: < 10% | inhibition at 10 µM [25]: 42.7% | inhibition at 10 µM [26]: < 10% | inhibition at 10 µM [27]: 42.6% | inhibition at 10 µM [28]: 20.3% | inhibition at 10 µM [29]: < 10% | inhibition at 10 µM [30]: 34.7% | inhibition at 10 µM [31]: 20.5% | inhibition at 10 µM [32]: 11.7%

COc1ccc2c(c1)/C(=N/NC(=O)c1oc3ccccc3c1C)C(=O)N2 [Compound 5d]
inhibition at 10 µM [1]: 83.7% | inhibition at 10 µM [2]: 29.9% | inhibition at 10 µM [3]: 76.2% | inhibition at 10 µM [4]: 123% | inhibition at 10 µM [5]: 80.1% | inhibition at 10 µM [6]: 155% | inhibition at 10 µM [7]: 151% | inhibition at 10 µM [8]: 74.5% | inhibition at 10 µM [9]: 29.1% | inhibition at 10 µM [10]: 69.5% | inhibition at 10 µM [11]: 77.2% | inhibition at 10 µM [12]: 52.3% | inhibition at 10 µM [13]: 62.6% | inhibition at 10 µM [14]: 129% | inhibition at 10 µM [15]: 129% | inhibition at 10 µM [16]: 89.3% | inhibition at 10 µM [17]: 49.1% | inhibition at 10 µM [18]: 56.5% | inhibition at 10 µM [19]: 152% | inhibition at 10 µM [20]: 45.7% | inhibition at 10 µM [21]: 153% | inhibition at 10 µM [22]: 84.2% | inhibition at 10 µM [23]: 93.7% | inhibition at 10 µM [24]: 42.9% | inhibition at 10 µM [25]: 139% | inhibition at 10 µM [26]: 166% | inhibition at 10 µM [27]: 98% | inhibition at 10 µM [28]: 95% | inhibition at 10 µM [29]: 61% | inhibition at 10 µM [30]: 167% | inhibition at 10 µM [31]: 56.2% | inhibition at 10 µM [32]: 42.3%

Cc1c(C(=O)N/N=C2\C(=O)N(C)c3ccccc32)oc2ccccc12 [Compound 7a]
inhibition at 10 µM [1]: < 10% | inhibition at 10 µM [2]: < 10% | inhibition at 10 µM [3]: < 10% | inhibition at 10 µM [4]: < 10% | inhibition at 10 µM [5]: < 10% | inhibition at 10 µM [6]: < 10% | inhibition at 10 µM [7]: < 10% | inhibition at 10 µM [8]: < 10% | inhibition at 10 µM [9]: < 10% | inhibition at 10 µM [10]: < 10% | inhibition at 10 µM [11]: < 10% | inhibition at 10 µM [12]: < 10% | inhibition at 10 µM [13]: < 10% | inhibition at 10 µM [14]: < 10% | inhibition at 10 µM [15]: < 10% | inhibition at 10 µM [16]: < 10% | inhibition at 10 µM [17]: < 10% | inhibition at 10 µM [18]: < 10% | inhibition at 10 µM [19]: 19.4% | inhibition at 10 µM [20]: < 10% | inhibition at 10 µM [21]: < 10% | inhibition at 10 µM [22]: < 10% | inhibition at 10 µM [23]: 32.8% | inhibition at 10 µM [24]: < 10% | inhibition at 10 µM [25]: 21.8% | inhibition at 10 µM [26]: < 10% | inhibition at 10 µM [27]: < 10% | inhibition at 10 µM [28]: 11.8% | inhibition at 10 µM [29]: < 10% | inhibition at 10 µM [30]: < 10% | inhibition at 10 µM [31]: < 10% | inhibition at 10 µM [32]: < 10%
